ChEMBL document CHEMBL1201862, “PubChem BioAssay data set” (2004)
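All cell lines were grown in 96-well plates and treated with compound for 48 hours. The concentration for 50% growth inhibition is given as GI50.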 Active and inactive are the calls of the source. No stated cut-off is given here; in the data, active = GI50 up to about 1.1 µM and inactive = higher.

What was measured:
Assay in all cases: growth of human tumour cells (NCI), 48 h
NCI-H522 = system: NCI-H522
TK-10 = system: TK-10
UO-31 = system: UO-31
NCI-H226 = system: NCI-H226
MCF7 = system: MCF7
A498 = system: A498
OVCAR-3 = system: OVCAR-3
M14 = system: M14
DU-145 = system: DU-145
MDA-N = system: MDA-N
CAKI-1 = system: CAKI-1
BT-549 = system: BT-549
HCC 2998 = system: HCC 2998
HL-60 = system: HL-60
SK-MEL-28 = system: SK-MEL-28
PC-3 = system: PC-3
SK-OV-3 = system: SK-OV-3
LXFL 529 = system: LXFL 529
UACC-257 = system: UACC-257
DMS-273 = system: DMS-273
NCI-H460 = system: NCI-H460
SN12C = system: SN12C
KM12 = system: KM12
MOLT-4 = system: MOLT-4
U-251 = system: U-251
LOX IMVI = system: LOX IMVI
SF-295 = system: SF-295
UACC-62 = system: UACC-62
EKVX = system: EKVX
COLO 205 = system: COLO 205
RPMI-8226 = system: RPMI-8226
OVCAR-5 = system: OVCAR-5
RXF 393 = system: RXF 393
NCI-H23 = system: NCI-H23
KM-20L2 = system: KM-20L2
ACHN = system: ACHN
OVCAR-4 = system: OVCAR-4
HOP-62 = system: HOP-62
SF-539 = system: SF-539
HT-29 = system: HT-29
SK-MEL-5 = system: SK-MEL-5
HCT-15 = system: HCT-15
786-0 = system: 786-0
SNB-19 = system: SNB-19
SR = system: SR
Malme-3M = system: Malme-3M
K562 = system: K562
DMS-114 = system: DMS-114
MDA-MB-231 = system: MDA-MB-231
SW-620 = system: SW-620
M19-MEL = system: M19-MEL
CCRF-CEM = system: CCRF-CEM
HCT-116 = system: HCT-116
HOP-92 = system: HOP-92
SNB-75 = system: SNB-75
NCI/ADR-RES = system: NCI/ADR-RES
A549 = system: A549
MDA-MB-435 = system: MDA-MB-435
SK-MEL-2 = system: SK-MEL-2
SF-268 = system: SF-268
IGROV-1 = system: IGROV-1
OVCAR-8 = system: OVCAR-8
Hs-578T = system: Hs-578T
T47D = system: T47D

CC[C@@]1(O)C(=O)OCc2c1cc1n(c2=O)Cc2cc3cc(OC)ccc3nc2-1
GI50 (NCI-H522): 24.6 nM (active)
GI50 (TK-10): 3010 nM (inactive)
GI50 (UO-31): 33.3 nM (active)
GI50 (NCI-H226): 16 nM (active)
GI50 (MCF7): 4.1 nM (active)
GI50 (A498): 415 nM (active)
GI50 (OVCAR-3): 435 nM (active)
GI50 (M14): 7.18 nM (active)
GI50 (DU-145): 4.39 nM (active)
GI50 (MDA-N): 142 nM (active)
GI50 (CAKI-1): 4.76 nM (active)
GI50 (BT-549): 30.8 nM (active)
GI50 (HCC 2998): 27.6 nM (active)
GI50 (HL-60): 18 nM (active)
GI50 (SK-MEL-28): 372 nM (active)
GI50 (PC-3): 36.4 nM (active)
GI50 (SK-OV-3): 49.8 nM (active)
GI50 (LXFL 529): 144 nM (active)
GI50 (UACC-257): 150 nM (active)
GI50 (DMS-273): 10 nM (active)
GI50 (NCI-H460): 6.07 nM (active)
GI50 (SN12C): 24.5 nM (active)
GI50 (KM12): 139 nM (active)
GI50 (MOLT-4): 4.58 nM (active)
GI50 (U-251): 4.07 nM (active)
GI50 (LOX IMVI): 22.1 nM (active)
GI50 (SF-295): 8 nM (active)
GI50 (UACC-62): 2.44 nM (active)
GI50 (EKVX): 546 nM (active)
GI50 (COLO 205): 116 nM (active)
GI50 (RPMI-8226): 107 nM (active)
GI50 (OVCAR-5): 45.2 nM (active)
GI50 (RXF 393): 16 nM (active)
GI50 (NCI-H23): 9.02 nM (active)
GI50 (KM-20L2): 60.4 nM (active)
GI50 (ACHN): 4.76 nM (active)
GI50 (OVCAR-4): 8.45 nM (active)
GI50 (HOP-62): 5.62 nM (active)
GI50 (SF-539): 3.3 nM (active)
GI50 (HT-29): 26.8 nM (active)
GI50 (SK-MEL-5): 21.1 nM (active)
GI50 (HCT-15): 116 nM
GI50 (786-0): 9.23 nM (active)
GI50 (SNB-19): 8.43 nM (active)
GI50 (SR): 6.67 nM (active)
GI50 (Malme-3M): 255 nM (active)
GI50 (K562): 123 nM (active)
GI50 (DMS-114): 10 nM (active)
GI50 (MDA-MB-231): 84.3 nM (active)
GI50 (SW-620): 24.8 nM (active)
GI50 (M19-MEL): 53.7 nM (active)
GI50 (CCRF-CEM): 4.57 nM (active)
GI50 (HCT-116): 19.7 nM (active)
GI50 (HOP-92): 11.4 nM (active)
GI50 (SNB-75): 4.27 nM (active)
GI50 (NCI/ADR-RES): 73 nM (active)
GI50 (A549): 24.9 nM (active)
GI50 (MDA-MB-435): 44.1 nM (active)
GI50 (SK-MEL-2): 160 nM (active)
GI50 (SF-268): 5.09 nM (active)
GI50 (IGROV-1): 106 nM (active)
GI50 (OVCAR-8): 44.8 nM (active)

COc1cc2c(cc1O)CCN(C)[C@H]2Cc1ccc(Oc2c(O)c(OC)cc3c2C[C@H]2c4c(c(OC)c(OC)c(OC)c4-3)CCN2C)cc1 [THALIFABERIDINE]
GI50 (NCI-H522): 5550 nM (inactive)
GI50 (TK-10): 6110 nM (inactive)
GI50 (UO-31): 4980 nM (inactive)
GI50 (NCI-H226): 7460 nM (inactive)
GI50 (Hs-578T): 5300 nM (inactive)
GI50 (MCF7): 5130 nM (inactive)
GI50 (A498): 7410 nM (inactive)
GI50 (OVCAR-3): 5360 nM (inactive)
GI50 (M14): 5400 nM (inactive)
GI50 (DU-145): 6340 nM (inactive)
GI50 (MDA-N): 4940 nM (inactive)
GI50 (CAKI-1): 5060 nM (inactive)
GI50 (BT-549): 5750 nM (inactive)
GI50 (HCC 2998): 3080 nM (inactive)
GI50 (HL-60): 4240 nM (inactive)
GI50 (SK-MEL-28): 6560 nM (inactive)
GI50 (PC-3): 4310 nM (inactive)
GI50 (SK-OV-3): 5420 nM (inactive)
GI50 (UACC-257): 7010 nM (inactive)
GI50 (NCI-H460): 2090 nM (inactive)
GI50 (SN12C): 5350 nM (inactive)
GI50 (KM12): 4110 nM (inactive)
GI50 (MOLT-4): 3000 nM (inactive)
GI50 (U-251): 4380 nM (inactive)
GI50 (LOX IMVI): 1720 nM (inactive)
GI50 (SF-295): 5790 nM (inactive)
GI50 (UACC-62): 3970 nM (inactive)
GI50 (EKVX): 5920 nM (inactive)
GI50 (COLO 205): 7080 nM (inactive)
GI50 (RPMI-8226): 1510 nM (inactive)
GI50 (OVCAR-5): 7500 nM (inactive)
GI50 (RXF 393): 1750 nM (inactive)
GI50 (NCI-H23): 6410 nM (inactive)
GI50 (ACHN): 5710 nM (inactive)
GI50 (OVCAR-4): 2300 nM (inactive)
GI50 (HOP-62): 6010 nM (inactive)
GI50 (SF-539): 5900 nM (inactive)
GI50 (HT-29): 2850 nM (inactive)
GI50 (SK-MEL-5): 2900 nM (inactive)
GI50 (HCT-15): 4430 nM
GI50 (786-0): 4530 nM (inactive)
GI50 (SNB-19): 6340 nM (inactive)
GI50 (SR): 1610 nM (inactive)
GI50 (Malme-3M): 7850 nM (inactive)
GI50 (K562): 966 nM (active)
GI50 (MDA-MB-231): 3040 nM (inactive)
GI50 (SW-620): 4710 nM (inactive)
GI50 (CCRF-CEM): 2920 nM (inactive)
GI50 (HCT-116): 2990 nM (inactive)
GI50 (HOP-92): 1690 nM (inactive)
GI50 (SNB-75): 4510 nM (inactive)
GI50 (T47D): 6050 nM (inactive)
GI50 (NCI/ADR-RES): 5560 nM (inactive)
GI50 (A549): 4940 nM (inactive)
GI50 (MDA-MB-435): 3510 nM (inactive)
GI50 (SK-MEL-2): 6820 nM (inactive)
GI50 (SF-268): 5660 nM (inactive)
GI50 (IGROV-1): 5430 nM (inactive)
GI50 (OVCAR-8): 4160 nM (inactive)
